Data on eight compounds can be found in patent US20260232713A1, “PLECOMACROLIDE DERIVATIVES FOR MHC-I NEF DOWNMODULATION” (priority 2022, published 2026).

As a reminder, the pIC50 is −log10 of the IC50, conventionally taken in molar units.

Data set [1] has as its target T1, HIV-Nef (Human immunodeficiency virus type 1, UniProt P03406).
T1 sequence (P03406 2-206): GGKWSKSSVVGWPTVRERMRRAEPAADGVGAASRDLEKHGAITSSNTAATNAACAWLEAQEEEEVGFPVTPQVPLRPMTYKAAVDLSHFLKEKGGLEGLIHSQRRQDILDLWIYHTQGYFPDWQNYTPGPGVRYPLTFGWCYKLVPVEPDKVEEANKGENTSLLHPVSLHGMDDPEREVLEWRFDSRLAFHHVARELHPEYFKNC
As to conditions: literature report; cited from earlier work.

Data set [2] relates to V-ATPase. As to conditions: literature report; cited from earlier work.
Data set [3] concerns the target T1, HIV-Nef. Kind of data set: Inhibition of HIV-Nef downmodulation of MHC-I HLA-A2 on the surface of HIV ΔGPE infected primary CD4+ T cells (flow cytometry). As to conditions: for pIC50 / Nef (Nef IC50): HLA-A2 surface expression, ΔGPE infected primary CD4+ T cells, 24 hours after treatment. Type of data set: cell-based.
For data set [4], the target named is T2, V-ATPase (Homo sapiens, UniProt P27449).
T2 construct: endogenous in cells; host or cells: primary CD4+ T cells (HIV ΔGPE infected) from donor PBMCs
T2 sequence (P27449 whole entry, looked up): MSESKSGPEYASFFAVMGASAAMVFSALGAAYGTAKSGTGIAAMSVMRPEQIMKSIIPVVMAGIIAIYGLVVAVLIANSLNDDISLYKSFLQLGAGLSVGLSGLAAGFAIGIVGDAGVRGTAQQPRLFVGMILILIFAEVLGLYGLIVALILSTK
Kind of data set: Lysosomal acidification (Lysotracker mean fluorescence intensity) as indicator of V-ATPase activity in primary CD4+ T cells. The format is cell-based. On the procedure:
(§1) Inhibition of HIV-Nef was measured by assessing its capacity to downmodulate MHC-I HLA-A2 on the surface of primary CD4+ T cells 24-hours after treatment with each compound. V-ATPase inhibition was assessed at the same time point using lysosomal acidification as an indicator of V-ATPase activity. This was measured using a flow cytometric assay that quantified Lysotracker mean fluorescence intensity as previously described (Painter et al., 2020). Cell viability was measured at 24-hour and 72-hour time points using a previously described flow cytometric assay (Painter et al., 2020).
(§2) Anonymized leukocytes isolated by apheresis were obtained from New York Blood Center and peripheral blood mononuclear cells (PBMCs) were isolated by Ficoll-Paque Plus (17144002; GE Healthcare) centrifugation using SepMate tubes (85450; StemCell Technologies) according to the manufacturers protocol. […] Then, 20-24 hours post-PHA activation, 15 mL of R10/PHA medium is removed and replaced with 5 mL of R10+100u/mL Recombinant Human IL-2 (202|L010; R&D Systems). 48 hours after IL-2 stimulation, primary CD4^+ T cells were infected via spinoculation with previously described HIV ΔGPE construct.
(§3) 48 hours after spinoculation, cells were pooled and plated in flat bottom 96-well plate. […] Compounds were thawed at room temperature and diluted in R10 medium to 2× starting concentration.
(§4) All ΔGPE infected cells were collected 24 hours after treatment.
(§5) All statistical analyses were performed using GraphPad Prism software. Curves were generated using GraphPad Prism software using [Inhibitor] vs. response with variable slope (four parameters).

The subject of data set [5] is primary CD4+ T cells. As to the kind of experiment: in vitro. The settings on record: for CC50: read-out: Viability (TC50), mock primary CD4+ T cells, 72 hours after treatment. On the procedure: as §1, §2, §3, §4
(§6) All Mock cells were collected 72 hours after treatment.
as §5

Data set [6] can be described thus: in vitro. As to conditions: human. On the procedure:
as §1, §2, §3, §4, §6, §5

Setting [7] is: Lysotracker Red, ΔGPE infected primary CD4+ T cells, 24 hours after treatment, read-out: Lysotracker (V-ATPase IC50, lysosomal neutralization).
Setting [8] is: Lysotracker Red, ΔGPE infected primary CD4+ T cells, 24 hours after treatment.

pIC50: −log10 of the molar value. Entries after “also recorded” stand apart in the source; their conditions may differ. Where two headings read alike, the source gives them in different places.

As to bafilomycin D, in data set [1], the “Potency as a Nef inhibitor (previously reported)” value was “very poor potency”. Moreover, in data set [2], the “V-ATPase inhibition (previously reported)” value was “low level V-ATPase inhibition”.
`C/C=C/[C@H]1O[C@@H]([C@@H](C)[C@H](O)[C@H](C)[C@H]2OC(=O)/C(OC)=C/C(C)=C/[C@@H](C)[C@@H](O)[C@@H](CC)[C@@H](O)[C@H](C)C/C(C)=C/C=C/[C@@H]2O)C[C@@H](O)[C@@H]1C` [Compound S25, 21-Deoxy-16-Hydroxy CMF]: the values for the pIC50 in data set [3] and in data set [4] (setting [7]) were 6.40 and less than 6.00, respectively. Further, the “Fold reduction of activity compared to 6” value in data set [3] (comparator CMF (6)) was “over 200 fold”. Also, the CC50 in data set [5] was more than 1000 nM.
With 21-Deoxy CMF [Compound S24], the values for the pIC50 in data set [3] and in data set [4] (setting [7]) were 8.35 and 7.49, respectively. Further, the “Viability:Nef (therapeutic window separating Nef IC50 and TC50)” value in data set [5] (ratio TC50 to Nef IC50) is recorded as 2.2 fold. The CC50 in data set [5] was found to be 9.4 nM.
For the compound `CC[C@H]1OC(=O)[C@H](C)[C@@H](O)[C@H](C)[C@@H](O)[C@@H](C)C[C@@H](C)C(=O)[C@H](C)[C@@H](O)[C@H]1C` [Compound S31, 6-deoxyerythronolide B, reference compound], the negative logarithm of the IC50 (pIC50) in data set [3] and in data set [4] (setting [7]) was less than 6.00 in each case. For the same compound, the CC50 in data set [5] was more than 1000 nM.
“Elaiophylin [Compound S16, reference compound]”: in data set [3], the pIC50 is 6.60. Moreover, the “Fold decrease in Nef potency compared to 2” value in data set [3] ([…]) was determined as 20 fold. Besides, in data set [5], the CC50 turned out to be 160 nM.
For `CO/C1=C\C(C)=C\[C@@H](C)C(=O)[C@@H](C)C/C(C)=C/C=C/[C@H](OC)[C@@H]([C@@H](C)[C@@H](O)[C@H](C)[C@@]2(O)C[C@@H](O)[C@H](C)[C@@H](C(C)C)O2)OC1=O` [Compound S17], the “Nef (Nef IC50)” value in data set [3] was “abrogation of activity at all concentrations tested; also recorded: above the activity threshold”. Besides, the pIC50 in data set [4] is less than 6.00. In addition, the “Lysotracker (V-ATPase IC50, lysosomal neutralization)” value in data set [4] (setting [8]) is “above the activity threshold”. Also, the CC50 at 72 h in data set [6] is more than 1000 nM.
Consider `CNC(=O)O[C@@H](CC(C)C)c1nc([C@H]2OC(=O)/C(C)=C/C/C(C)=C/[C@@H](O)[C@@H](C)\C=C(C)/C=C(C)\C=C\[C@@H](O)[C@H](C)[C@H](OC)/C(C)=C/C=C/[C@@H]2C)cs1` [Compound 3, Archazolid A, reference compound], for which the pIC50 is 9.33 in data set [3] and 8.80 in data set [4] (setting [7]).
For the compound `CO/C1=C\C(C)=C\[C@@H](C)C(=O)[C@@H](C)C/C(C)=C/C=C/[C@H](OC)[C@@H]([C@@H](C)[C@@H](O)[C@H](C)[C@@]2(O)CC(=O)[C@H](C)[C@@H](C(C)C)O2)OC1=O` [Compound S18], in data set [3], the “Nef (Nef IC50)” value is recorded as “above the activity threshold”. Moreover, the pIC50 in data set [4] was less than 6.00. Moreover, the “Lysotracker (V-ATPase IC50, lysosomal neutralization)” value in data set [4] (setting [8]) is “above the activity threshold”. Further, the CC50 in data set [6] was more than 1000 nM.
